Experimental data reported in the supplement of paper PMC10307832.

What was measured:
Assay in all cases: relative viability (nuclei count vs DMSO), 5 days (fraction); higher = more cells survive
[1] = compound: C[C@]12O[C@H](C[C@]1(O)CO)n1c3ccccc3c3c4c(c5c6ccccc6n2c5c31)CNC4=O [Lestaurtinib] + CC(=O)Nc1cccc(-n2c(=O)n(C3CC3)c(=O)c3c(Nc4ccc(I)cc4F)n(C)c(=O)c(C)c32)c1 [Trametinib] (partner 0.02 µM)
Outline: (§1)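 Medians of duplicate plates are given as relative viability. That measure is the nuclei count in treated wells divided by the count in vehicle wells. Counts were taken on 4× images of lung cancer cell lines in 1536-well plates, 5 days after pin-tool dosing the day after seeding with one drug alone or a fixed anchor-drug dose plus five library-drug doses (not always all listed) in √10 steps.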

[2] = compound: C1/C(=C\C2=CC=CS2)/C(=O)/C(=C/C3=CC=CS3)/C1 + O=C(c1cc(Cc2n[nH]c(=O)c3ccccc23)ccc1F)N1CCN(C(=O)C2CC2)CC1 [Olaparib] (partner 8 µM)
Outline: as §1

TPCA-1 + Pictilisib = compound: C1=CC(=CC=C1C2=CC(=C(S2)NC(=O)N)C(=O)N)F [TPCA-1] + CS(=O)(=O)N1CCN(Cc2cc3nc(-c4cccc5[nH]ncc45)nc(N4CCOCC4)c3s2)CC1 [Pictilisib] (partner 1 µM)
Outline: as §1

TPCA-1 + Pemetrexed = compound: C1=CC(=CC=C1C2=CC(=C(S2)NC(=O)N)C(=O)N)F [TPCA-1] + Nc1nc2[nH]cc(CCc3ccc(C(=O)N[C@@H](CCC(=O)O)C(=O)O)cc3)c2c(=O)[nH]1 [Pemetrexed] (partner 0.2 µM)
Outline: as §1

Row | Cell Line | relative viability ([1]; first compound 0.005 µM) | relative viability ([1]; first compound 0.01581 µM) | relative viability ([1]; first compound 0.05 µM) | relative viability ([1]; first compound 0.1581 µM) | relative viability ([1]; first compound 0.5 µM) | relative viability ([2]; first compound 0.2 µM) | relative viability ([2]; first compound 0.6325 µM) | relative viability ([2]; first compound 2 µM) | relative viability ([2]; first compound 20 µM) | relative viability (TPCA-1 + Pictilisib; first compound 0.04 µM) | relative viability (TPCA-1 + Pictilisib; first compound 0.1265 µM) | relative viability (TPCA-1 + Pictilisib; first compound 0.4 µM) | relative viability (TPCA-1 + Pictilisib; first compound 1.265 µM) | relative viability (TPCA-1 + Pictilisib; first compound 4 µM) | relative viability (TPCA-1 + Pemetrexed; first compound 0.04 µM) | relative viability (TPCA-1 + Pemetrexed; first compound 0.1265 µM) | relative viability (TPCA-1 + Pemetrexed; first compound 0.4 µM) | relative viability (TPCA-1 + Pemetrexed; first compound 1.265 µM) | relative viability (TPCA-1 + Pemetrexed; first compound 4 µM) | relative viability ([2]; first compound 6.325 µM)
1 | NCI-H2009 | 0.28 | 0.233 | 0.206 | 0.235 | 0.185 | 0.71 | 0.683 | 0.701 | 0.707 | 0.974 | 0.741 | 0.896 | 0.272 | 0.318 | 1.07 | 0.979 | 1 | 1.11 | 0.99 | –
2 | NCI-H1651 | 0.86 | 0.919 | 0.887 | 0.832 | 0.77 | 0.174 | 0.207 | 0.197 | 0.229 | 0.637 | 0.487 | 0.561 | 0.657 | 0.436 | 0.601 | 0.538 | 0.532 | 0.527 | 0.338 | 0.19
3 | HARA | 0.639 | 0.832 | 0.685 | 1.09 | 0.268 | 1.11 | 0.862 | 0.944 | 0.83 | 0.591 | 0.4 | 0.433 | 0.393 | 0.331 | 0.242 | 0.226 | 0.226 | 0.198 | 0.223 | 0.716
4 | NCI-H1944 | 0.408 | 0.464 | 0.386 | 0.345 | 0.292 | 0.435 | 0.385 | 0.392 | 0.41 | 0.384 | 0.326 | 0.343 | 0.312 | 0.258 | 0.631 | 0.466 | 0.705 | 0.589 | 0.487 | –
5 | NCI-H2347 | 0.288 | 0.305 | 0.299 | 0.278 | 0.301 | 0.623 | 0.581 | 0.593 | 0.63 | 0.588 | 0.568 | 0.901 | 0.806 | 0.31 | 0.385 | 0.419 | 0.417 | 0.385 | 0.424 | 0.521
6 | 201T | 0.744 | 0.758 | 0.76 | 0.837 | 0.721 | 0.866 | 0.856 | 0.858 | 0.84 | 0.733 | 0.66 | 0.687 | 0.663 | 0.632 | 0.363 | 0.298 | 0.337 | 0.282 | 0.304 | 0.775
7 | PC-14 | 0.793 | 0.787 | 0.701 | 0.548 | 0.0827 | 0.289 | 0.28 | 0.239 | 0.31 | 0.847 | 0.605 | 0.526 | 0.499 | 0.322 | 0.136 | 0.128 | 0.133 | 0.134 | 0.138 | 0.192
8 | NCI-H1650 | 0.516 | 0.66 | 0.656 | 0.687 | 0.335 | 0.854 | 0.793 | 0.734 | 0.717 | 0.7 | 0.537 | 0.592 | 0.423 | 0.422 | 0.382 | 0.369 | 0.424 | 0.358 | 0.365 | 0.69
9 | NCI-H1792 | 0.429 | 0.516 | 0.339 | 0.386 | 0.244 | 0.499 | 0.492 | 0.627 | 0.474 | 0.343 | 0.318 | 0.252 | 0.264 | 0.177 | 1.24 | 0.721 | 0.764 | 0.672 | 0.222 | 0.279
10 | COR-L23 | 0.755 | 0.652 | 0.272 | 0.317 | 0.0849 | 0.408 | 0.367 | 0.323 | 0.325 | 0.964 | 0.671 | 0.829 | 0.716 | 0.438 | 0.206 | 0.207 | 0.184 | 0.193 | 0.196 | 0.388
11 | ChaGo-K-1 | 0.899 | 1.02 | 0.704 | 0.773 | 0.645 | 0.407 | 0.413 | 0.381 | 0.169 | 0.624 | 0.704 | 0.805 | 0.748 | 0.334 | 0.273 | 0.23 | 0.274 | 0.261 | 0.211 | 0.233
12 | HOP-62 | 0.409 | 0.446 | 0.389 | 0.351 | 0.319 | 0.433 | 0.596 | 0.391 | 0.272 | 0.964 | 0.57 | 0.734 | 0.123 | 0.186 | 0.269 | 0.346 | 0.299 | 0.271 | 0.216 | 0.359
13 | NCI-H1915 | 0.318 | 0.254 | 0.253 | 0.12 | 0.0799 | 0.264 | 0.247 | 0.307 | 0.26 | 1.27 | 0.906 | 1.05 | 0.876 | 0.477 | 0.532 | 0.507 | 0.509 | 0.46 | 0.371 | 0.241
14 | BEN | 1.23 | 1.43 | 0.998 | 0.709 | 0.553 | 1.15 | 1.03 | 1.19 | 0.944 | 0.663 | 0.449 | 0.516 | 0.789 | 0.441 | 0.701 | 0.661 | 0.739 | 0.99 | 0.513 | 1.04
15 | NCI-H1437 | 0.569 | 0.684 | 0.56 | 0.691 | 0.603 | 0.667 | 0.618 | 0.634 | 0.617 | 0.508 | 0.439 | 0.423 | 0.538 | 0.29 | 0.318 | 0.326 | 0.318 | 0.302 | 0.298 | 0.563
16 | EMC-BAC-2 | 0.926 | 0.905 | 0.973 | 0.748 | 0.415 | 0.51 | 0.495 | 0.484 | 0.514 | 0.59 | 0.475 | 0.55 | 0.318 | 0.406 | 0.422 | 0.472 | 0.466 | 0.436 | 0.484 | 0.424
